From publication PMC2965131, “Histopathology and biochemistry analysis of the interaction between sunitinib and paracetamol in mice” (BMC Pharmacology, 2010)
Several values for one entry are separate records, joined by “and”; a condition that tells them apart may be missing. Equal values may be shown once.

Key:
Male ICR mice [1] = assay: Serum ALT and AST (liver function biomarkers); format: in vivo; conditions: for ALT serum concentration / AST serum concentration: mean ± SE
Experimental: (§1) Animals were fasted overnight prior to dose administration and randomly assigned to each of the four experimental groups. Mice in group A (n = 6) were administered saline; mice in group B mice (n = 6) were administered paracetamol only, 500 mg/kg IP. Group C was further subdivided into five different dose-groups of sunitinib only treatment: 25, 50, 80, 100 and 140 mg/kg administered PO (n = 6 for each dose group). Finally, mice in group D were co-administered paracetamol (500 mg/kg IP) and sunitinib at different doses: 25, 50, 80, 100 and 140 mg/kg PO (n = 6 each dose group). A feeding needle was used to ensure the full administration of the dose. Paracetamol was administered 15 minutes before sunitinib and animals were sacrificed 4 hours post sunitinib administration by cervical dislocation. Blood was obtained via cardiac puncture, allowed to clot, centrifuged (1500 rpm, 10 min, room temperature) and stored at -20°C until analysis. The liver and kidneys were excised from the mice and processed for histology assessment.
(§2) Biochemistry analysis of serum ALT and AST was performed using standard assay kits (BiooScientific Corp., USA). The concentration in duplicate samples was measured at 340 nm using a microplate reader (Tecan Infinite F200). Similarly, blood urea nitrogen (BUN) and creatinine concentration were measured using specific assay kits (BioAssay Systems, USA) and measured at 490 nm (duplicate samples) in a Dynex OpsysMR microplate reader.
(§3) The effect of the drug combination on the biomarker levels compared to sunitinib alone treatment was assessed with the aid of SPSS 16.0 with the significance level set at p < 0.05. Independent-samples t-test (for samples normally distributed based on Shapiro-Wilk test) for pair-wise comparison was performed at each dose of the sunitinib alone and sunitinib and paracetamol combination groups. Samples that were not normally distributed were tested using the Mann Whitney test.

Male ICR mice [2] = assay: Serum BUN and creatinine (renal function biomarkers); format: in vivo; conditions: for BUN serum concentration / Creatinine serum concentration: mean ± SE, n = 6
Experimental: as §1, §2, §3

liver tissue = assay: Histopathology assessment of liver (H&E, semi-quantitative grading); format: in vivo; conditions: mice
Experimental: as §1
(§4) Processing of tissue samples for histology assessment followed established procedures. In brief, the tissue samples were rinsed with 0.9% saline solution, fixed in 10% formalin. Then the diagonal section of the liver, the transverse section of the kidneys and heart and the horizontal section of the spleen and the posterior section of the brain were obtained and processed (Leica TP1020, Japan) as follows: (1) 10% neutral buffered formalin for 1 h, twice; (2) 70% alcohol for 1.5 h; (3) 80% alcohol for 1.5 h; (4) 90% alcohol for 1.5 h; (5) absolute alcohol for 1.5 h, twice; (6) xylene for 1.5 h, twice; (7) in molten wax at 65°C for 2.5 h two changes. The processed tissues were embedded in paraffin and sectioned at 4 microns thickness, placed on frosted glass slides and dried on a 70°C hot plate for 30 minutes.
(§5) The tissues were stained using the hematoxylin and eosin (H&E) stains. The sections were dewaxed in two changes of xylene (3 min each), hydrated in two changes of 100% ethanol, followed by 90% ethanol and 70% ethanol, for 3 min each, rinsed with water (3 min) and stained. […]
(§6) Histopathology changes were observed and grouped based on two main criteria: vascular changes including vessel congestion, extravasation of red blood cells and hematoma formation; and necrotic changes including necrosis, fibrosis, nuclear changes, abscesses and cell regeneration. The morphological changes were assessed semi-quantitatively, blind by two independent assessors and graded as follows: No change - 0 (no distinguishable change, 0%); mild change - 1 (initiation of changes, up to 30%); moderate change - 2 (patent changes, 31-60%); severe change - 3 (wide spread changes, 61-100%). […]

kidney tissue = assay: Histopathology assessment of kidney (H&E, semi-quantitative grading); format: in vivo; conditions: mice
Experimental: as §1, §4
(§7) The tissues were stained using the hematoxylin and eosin (H&E) stains. The sections were dewaxed in two changes of xylene (3 min each), hydrated in two changes of 100% ethanol, followed by 90% ethanol and 70% ethanol, for 3 min each, rinsed with water (3 min) and stained. The stained tissues were dehydrated with 70% ethanol followed by 90% ethanol, placed in two changes of 100% ethanol for 3 minutes each and cleaned with two changes of xylene (3 min each).
(§8) Histopathology changes were observed and grouped based on two main criteria: vascular changes including vessel congestion, extravasation of red blood cells and hematoma formation; and necrotic changes including necrosis, fibrosis, nuclear changes, abscesses and cell regeneration. The morphological changes were assessed semi-quantitatively, blind by two independent assessors and graded as follows: No change - 0 (no distinguishable change, 0%); mild change - 1 (initiation of changes, up to 30%); moderate change - 2 (patent changes, 31-60%); severe change - 3 (wide spread changes, 61-100%). Then, using SPSS 16.0, the Mann-Whitney test was used for pair-wise comparison between the sunitinib alone group and the combination group at each dose. The differences were considered significance if p < 0.05.

heart tissue = assay: Histopathology assessment of heart (H&E, semi-quantitative grading); format: in vivo; conditions: mice
Experimental: as §1, §4, §7, §8

brain tissue = assay: Histopathology assessment of brain (H&E, semi-quantitative grading); format: in vivo; conditions: mice; for Brain histopathological changes: 4 h
Experimental: as §1
Processing of tissue samples for histology assessment followed established procedures. In brief, the tissue samples were rinsed with 0.9% saline solution, fixed in 10% formalin. […]
as §6

spleen = assay: Histopathology assessment of spleen (H&E, semi-quantitative grading); format: in vivo; conditions: mice; for Spleen inflammatory changes: at any dose; for Spleen vascular changes: study doses of each treatment group
Experimental: as §1, §4, §5, §6

P450 = test system: P450; set-up: method as in PMID 20020268; conditions: cited from earlier work
[3] = humans; cited from earlier work
plasma proteins = conditions: humans; cited from earlier work
[4] = set-up: method as in PMID 19169880; conditions: mice, cited from earlier work
mouse plasma proteins = test system: mouse plasma proteins; set-up: method as in PMID 19169880; conditions: fraction unbound independent of concentration; cited from earlier work
[5] = set-up: method as in earlier work; conditions: monkeys; up; cited from earlier work
[6] = set-up: method as in PMID 16520665; conditions: mice; cited from earlier work
[7] = paracetamol 500 mg/kg IP alone, n = 6
[8] = paracetamol 500 mg/kg IP alone, n = 6, listed as paracetamol
[9] = sunitinib 25 mg/kg PO alone, 4 h post dose, n = 6
[10] = sunitinib 50 mg/kg PO alone, 4 h post dose, n = 6
[11] = sunitinib 80 mg/kg PO alone, 4 h post dose, n = 6
[12] = sunitinib 100 mg/kg PO alone, 4 h post dose, n = 6
[13] = sunitinib 140 mg/kg PO alone, 4 h post dose, n = 6
[14] = sunitinib alone 25-140 mg/kg PO, 4 h post dose
[15] = sunitinib 25 mg/kg PO alone, 4 h post dose
[16] = sunitinib 50 mg/kg PO alone, 4 h post dose
[17] = sunitinib 80 mg/kg PO alone, 4 h post dose
[18] = sunitinib 100 mg/kg PO alone, 4 h post dose
[19] = sunitinib 140 mg/kg PO alone, 4 h post dose
[20] = increasing doses of sunitinib alone (25-140 mg/kg PO), 4 h

CC(=O)Nc1ccc(O)cc1 [PCM, paracetamol]
Mean serum AST relative to vehicle control group (Male ICR mice [1]; paracetamol 500 mg/kg IP alone): 2 fold
ALT serum concentration (Male ICR mice [1]; [7]): 249.6 ± 222.7 U/L
AST serum concentration (Male ICR mice [1]; [7]): 377.1 ± 173.6 U/L
ALT serum concentration (Male ICR mice [1]; [8]): 249.60 ± 222.72 U/L
AST serum concentration (Male ICR mice [1]; [8]): 377.09 ± 173.55 U/L
Increase of creatinine serum concentration vs baseline control (Male ICR mice [2]; paracetamol 500 mg/kg IP alone): 21%
BUN serum concentration (Male ICR mice [2]; paracetamol 500 mg/kg IP alone): 33.81 ± 5.68 mg/dL
Creatinine serum concentration (Male ICR mice [2]; paracetamol 500 mg/kg IP alone): 0.644 ± 0.110 mg/dL
Hepatic inflammatory changes (grade) (liver tissue; paracetamol 500 mg/kg IP alone): moderate (moderate change - 2 (patent changes, 31-60%))
Hepatic vascular changes (grade) (liver tissue; paracetamol 500 mg/kg IP alone): mild (mild change - 1 (initiation of changes, up to 30%))
Renal inflammatory changes (grade) (kidney tissue; paracetamol 500 mg/kg IP alone): mild (mild change - 1 (initiation of changes, up to 30%))
Renal vascular changes (grade) (kidney tissue; paracetamol 500 mg/kg IP alone): mild (mild change - 1 (initiation of changes, up to 30%))
Heart inflammatory changes (grade) (heart tissue; paracetamol 500 mg/kg IP alone): mild (mild change - 1 (initiation of changes, up to 30%))
Heart vascular congestion (grade) (heart tissue; paracetamol 500 mg/kg IP alone): mild (mild change - 1 (initiation of changes, up to 30%))
Brain vascular or inflammatory changes (brain tissue; paracetamol 500 mg/kg IP alone): no vascular or inflammatory changes
Spleen inflammatory changes (spleen): no inflammatory changes
Spleen vascular changes (spleen): did not reveal any vascular changes
Amount undergoing P450 mediated oxidation to NAPQI (P450): ~ 5%

CCN(CC)CCNC(=O)c1c(C)[nH]c(/C=C2\C(=O)Nc3ccc(F)cc32)c1C [Sunitinib]
ALT serum concentration (Male ICR mice [1]; [9]): 61.40 ± 26.57 U/L
AST serum concentration (Male ICR mice [1]; [9]): 204.6 ± 50.3 U/L
ALT serum concentration (Male ICR mice [1]; [10]): 36.75 ± 12.15 U/L
AST serum concentration (Male ICR mice [1]; [10]): 204.4 ± 49.4 U/L
ALT serum concentration (Male ICR mice [1]; [11]): 75.02 ± 20.37 U/L
AST serum concentration (Male ICR mice [1]; [11]): 290.3 ± 77.7 U/L
ALT serum concentration (Male ICR mice [1]; [12]): 47.61 ± 24.50 U/L
AST serum concentration (Male ICR mice [1]; [12]): 243.0 ± 66.4 U/L
ALT serum concentration (Male ICR mice [1]; [13]): 50.89 ± 18.90 U/L
AST serum concentration (Male ICR mice [1]; [13]): 239.5 ± 65.9 U/L
ALT serum concentration, range of group means (Male ICR mice [1]; [14]): 36.75-75.02 U/L
AST serum concentration, range of group means (Male ICR mice [1]; [14]): 204.4-290.3 U/L and 204.64 - 290.28 U/L
BUN serum concentration (Male ICR mice [2]; [15]): 20.08 ± 2.54 mg/dL
Creatinine serum concentration (Male ICR mice [2]; [15]): 0.535 ± 0.033 mg/dL
BUN serum concentration (Male ICR mice [2]; [16]): 17.5 ± 1.25 mg/dL
Creatinine serum concentration (Male ICR mice [2]; [16]): 0.594 ± 0.082 mg/dL
BUN serum concentration (Male ICR mice [2]; [17]): 19.71 ± 0.58 mg/dL
Creatinine serum concentration (Male ICR mice [2]; [17]): 0.528 ± 0.064 mg/dL
BUN serum concentration (Male ICR mice [2]; [18]): 17.62 ± 0.94 mg/dL
Creatinine serum concentration (Male ICR mice [2]; [18]): 0.533 ± 0.060 mg/dL
BUN serum concentration (Male ICR mice [2]; [19]): 26.68 ± 6.05 mg/dL
Creatinine serum concentration (Male ICR mice [2]; [19]): 0.559 ± 0.051 mg/dL
BUN concentrations, range of group means (Male ICR mice [2]; [14]): 17.50 to 26.68 mg/dL
Creatinine serum concentration, range of group means (Male ICR mice [2]; [14]): 0.528 to 0.594 mg/dL
Hepatic inflammatory changes (grade) (liver tissue; [20]): mild (mild change - 1 (initiation of changes, up to 30%))
Hepatic vascular changes (grade) (liver tissue; [20]): mild (mild change - 1 (initiation of changes, up to 30%))
Renal inflammatory changes (kidney tissue; sunitinib alone 140 mg/kg PO, 4 h): some tubular necrosis
Renal vascular changes (grade) (kidney tissue; sunitinib alone 25-140 mg/kg PO, 4 h): mild (mild change - 1 (initiation of changes, up to 30%))
Renal inflammatory changes (kidney tissue; sunitinib alone PO, doses below 140 mg/kg, 4 h): no signs of inflammatory changes
Cardiotoxicity (damage grade) (heart tissue; 25 - 80 mg/kg doses of sunitinib, reduction in relation to the paracetamol group): no damage to moderate damage
Heart inflammatory changes (heart tissue; sunitinib alone PO, 4 h): no inflammatory changes
Heart vascular congestion (grade) (heart tissue; sunitinib alone PO, 4 h): mild (mild change - 1 (initiation of changes, up to 30%))
Brain histopathological changes (brain tissue; sunitinib alone PO at high doses): toxicity decreased
Brain histopathological changes (brain tissue; sunitinib alone PO at low doses (p < 0.05 at 25 and 80 mg/kg)): Some congestion of vessels at the 'cortical junction' as well as evidence of liquefactive necrosis
Spleen inflammatory changes (spleen): no inflammatory changes
Spleen vascular changes (spleen): did not reveal any vascular changes
Dose eliminated in the faeces [3]: 61%
Half-life [3]: 40 to 60 h
Recovered unchanged in urine [3]: around 16%
Time after dosing at which maximum plasma concentration is reached [3]: 6 to 12 h
Bound to albumin (plasma proteins): 95%
Elimination half-life ([4]; after oral administration): 1.5 to 7.6 h
Time within which maximum concentration is achieved [4]: 0.5 to 6 h
Bound to mouse plasma proteins (mouse plasma proteins): 91%
Brain penetration, percent of plasma concentrations [5]: 30%-40
Brain penetration, times the plasma concentration [6]: 4-7 times

CCNCCNC(=O)c1c(C)[nH]c(/C=C2\C(=O)Nc3ccc(F)cc32)c1C [SU12662]
Half-life [3]: 80 to 110 h
Bound to plasma proteins (plasma proteins): 90%
Bound to mouse plasma proteins (mouse plasma proteins): 95%
Brain penetration, percent of plasma concentrations [5]: 30%-40
Brain penetration, times the plasma concentration [6]: 4-7 times
